# Experimental data reported in patent US20230265151A1, “GIP/GLP1 CO-AGONIST COMPOUNDS” (priority 2020, published 2023).
# Read-outs that look alike come from different tables or passages of the source. *1 amine or outer side, *2 acyl side, *3 side chain or, on linkers, in order; H or OH if unused. Where a SMILES comes first, the peptide text is derived from it. Side-chain parts run from the residue outwards. [ ]: non-standard residue; d: D form. The star is where a group is joined. Decanoyl(10-(4-HOOC-PhO)) = O=C(O)c1ccc(OCCCCCCCCCC(=O)*)cc1; αMePhe(2-F) = C[C@](N)(Cc1ccccc1F)C(=O)O; γGlu = O=C(O)[C@H](CCC(=O)[*:2])N[*:1]; αMeY = C[C@](N)(Cc1ccc(O)cc1)C(=O)O; αMeL = CC(C)C[C@](C)(N)C(=O)O; Orn = NCCC[C@H](N)C(=O)O; AEEA = NCCOCCOCC(=O)O; Aib = CC(C)(N)C(=O)O
# Legend:
# Type in all cases: cell-based
# hGIPR = molecular target: T1, hGIPR (Homo sapiens, UniProt P48546); assay: Functional cAMP formation (HTRF) in HEK-293 clonal cells expressing hGIPR, 0.1% bovine casein, without or with 1.0% human serum albumin; details: for EC50: geometric mean
# T1 construct: expressed in transfected cells
# T1 sequence (P48546 22-466): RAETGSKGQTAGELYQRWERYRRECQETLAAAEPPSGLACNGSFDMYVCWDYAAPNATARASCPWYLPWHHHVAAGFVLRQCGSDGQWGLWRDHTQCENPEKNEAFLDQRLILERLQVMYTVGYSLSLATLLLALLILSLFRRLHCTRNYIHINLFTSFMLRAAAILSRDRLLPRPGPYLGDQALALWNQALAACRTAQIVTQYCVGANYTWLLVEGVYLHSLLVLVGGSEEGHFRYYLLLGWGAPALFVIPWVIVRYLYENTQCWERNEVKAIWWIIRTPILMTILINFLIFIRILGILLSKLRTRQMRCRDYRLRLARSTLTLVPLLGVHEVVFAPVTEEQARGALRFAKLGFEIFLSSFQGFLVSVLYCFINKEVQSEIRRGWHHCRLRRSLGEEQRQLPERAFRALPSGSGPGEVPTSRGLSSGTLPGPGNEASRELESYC
# How it was run: (§1)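 Cells were stimulated with peptide for 30 min at 37° C, then intracellular cAMP was measured by competitive HTRF (665/620 nm ratio) and converted to nM using a cAMP standard curve. Relative EC50 and Emax came from four-parameter logistic fits of percent maximal response against peptide concentration.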
# hGLP-1R = hGLP-1R (Homo sapiens, UniProt P43220); assay: Functional cAMP formation (HTRF) in HEK-293 clonal cells expressing hGLP-1R, 0.1% bovine casein, without or with 1.0% human serum albumin; parameters: expressed in transfected cells; details: for EC50: cAMP, 0.1% bovine casein (no human serum albumin), geometric mean
# How it was run: as §1
# hGCGR = molecular target: T2, hGCGR (Homo sapiens, UniProt P47871); assay: Functional cAMP formation (HTRF) in HEK-293 clonal cells expressing hGCGR, 0.1% bovine casein, without or with 1.0% human serum albumin; details: geometric mean
# T2 construct: expressed in transfected cells
# How it was run: as §1
# T2 sequence (P47871 26-477): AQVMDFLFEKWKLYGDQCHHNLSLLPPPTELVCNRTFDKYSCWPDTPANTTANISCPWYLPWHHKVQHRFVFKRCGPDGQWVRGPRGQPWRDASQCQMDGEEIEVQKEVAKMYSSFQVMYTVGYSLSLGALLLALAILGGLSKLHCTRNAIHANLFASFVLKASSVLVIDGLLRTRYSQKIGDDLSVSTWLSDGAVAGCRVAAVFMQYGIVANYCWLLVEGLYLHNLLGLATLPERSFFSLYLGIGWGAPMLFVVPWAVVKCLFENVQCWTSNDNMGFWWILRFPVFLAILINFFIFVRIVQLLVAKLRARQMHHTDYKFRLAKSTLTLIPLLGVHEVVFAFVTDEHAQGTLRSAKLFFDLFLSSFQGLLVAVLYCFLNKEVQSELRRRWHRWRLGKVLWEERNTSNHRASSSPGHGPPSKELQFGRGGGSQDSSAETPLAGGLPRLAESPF
# Chain of hGLP-1R (P43220 24-463): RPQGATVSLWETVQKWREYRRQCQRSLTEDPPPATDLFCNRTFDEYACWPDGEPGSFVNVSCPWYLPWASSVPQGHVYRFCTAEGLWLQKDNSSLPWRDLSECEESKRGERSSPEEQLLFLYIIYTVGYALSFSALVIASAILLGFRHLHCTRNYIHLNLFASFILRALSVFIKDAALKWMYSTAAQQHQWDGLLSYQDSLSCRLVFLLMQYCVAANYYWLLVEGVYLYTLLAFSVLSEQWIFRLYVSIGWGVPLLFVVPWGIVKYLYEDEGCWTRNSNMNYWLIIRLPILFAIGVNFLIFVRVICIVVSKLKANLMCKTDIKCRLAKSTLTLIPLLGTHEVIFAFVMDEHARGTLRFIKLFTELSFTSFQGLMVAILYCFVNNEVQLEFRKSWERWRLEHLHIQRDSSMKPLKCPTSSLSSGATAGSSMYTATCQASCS
Compound,"Emax (hGIPR; HEK293, read-out: hGIPR Emax, % ± SEM, 0.1% bovine casein and 1.0% human serum albumin, 37° C., percent of maximal response to GIP(1-42)NH2)","Emax (hGIPR; HEK293, read-out: hGIPR Emax, % ± SEM, percent of maximal response to GIP(1-42)NH2, 37° C., 0.1% bovine casein, arithmetic mean)","EC50 (hGIPR; hGIPR EC50, nM (SEM, n), cAMP, incubated at 37° C., 0.1% bovine casein (no human serum albumin))","Emax (hGLP-1R; HEK293, read-out: hGLP-1R Emax, % ± SEM, 0.1% bovine casein and 1.0% human serum albumin, 37° C., percent of maximal response to GLP-1(7-36)NH2)","Emax (hGLP-1R; HEK293, read-out: hGLP-1R Emax, % ± SEM, percent of maximal response to GLP-1(7-36)NH2, 37° C., 0.1% bovine casein, arithmetic mean)","EC50 (hGLP-1R; hGLP-1R EC50, nM (SEM, n), incubated at 37° C.)","EC50 (hGCGR; hGCGR EC50, nM (SEM, n), 0.1% bovine casein and 1.0% human serum albumin, 37° C.)","EC50 (hGCGR; hGCGR EC50, nM (SEM, n), cAMP, incubated at 37° C., 0.1% bovine casein (no human serum albumin))","EC50 (hGIPR; 0.1% bovine casein and 1.0% human serum albumin, 37° C., read-out: hGIPR EC50, nM (SEM, n))","Emax (hGIPR; HEK293, 0.1% bovine casein and 1.0% human serum albumin, 37° C., percent of maximal response to GIP(1-42)NH2, read-out: hGIPR Emax, % ± SEM)","Emax (hGIPR; HEK293, cAMP, 37° C., 0.1% bovine casein, percent of maximal response to GIP(1-42)NH2, arithmetic mean, read-out: hGIPR Emax, % ± SEM)","Emax (hGLP-1R; HEK293, 0.1% bovine casein and 1.0% human serum albumin, 37° C., percent of maximal response to GLP-1(7-36)NH2, read-out: hGLP-1R Emax, % ± SEM)","Emax (hGLP-1R; HEK293, cAMP, 37° C., 0.1% bovine casein, percent of maximal response to GLP-1(7-36)NH2, arithmetic mean, read-out: hGLP-1R Emax, % ± SEM)","EC50 (hGLP-1R; 37° C., read-out: hGLP-1R EC50, nM (SEM, n))","EC50 (hGCGR; 0.1% bovine casein and 1.0% human serum albumin, 37° C., read-out: hGCGR EC50, nM (SEM, n))","EC50 (hGCGR; cAMP, 37° C., 0.1% bovine casein (no human serum albumin), read-out: hGCGR EC50, nM (SEM, n))"
CC[C@H](C)[C@H](NC(=O)[C@H](CCCN)NC(=O)[C@H](CC(=O)O)NC(=O)[C@H](CC(C)C)NC(=O)[C@](C)(CC(C)C)NC(=O)[C@@H](NC(=O)C(C)(C)NC(=O)[C@H](Cc1ccc(O)cc1)NC(=O)[C@H](CC(=O)O)NC(=O)[C@H](CO)NC(=O)[C@@H](NC(=O)[C@](C)(Cc1ccccc1F)NC(=O)[C@@H](NC(=O)CNC(=O)[C@H](CCC(=O)O)NC(=O)C(C)(C)NC(=O)[C@@H](N)Cc1ccc(O)cc1)[C@@H](C)O)[C@@H](C)O)[C@@H](C)CC)C(=O)N[C@@H](C)C(=O)N[C@@H](CCC(N)=O)C(=O)NC(C)(C)C(=O)N[C@@H](CCCCNC(=O)COCCOCCNC(=O)COCCOCCNC(=O)CC[C@H](NC(=O)CCCCCCCCCOc1ccc(C(=O)O)cc1)C(=O)O)C(=O)N[C@@H](Cc1ccccc1)C(=O)N[C@H](C(=O)N[C@H](CCC(=O)O)C(=O)N[C@@](C)(Cc1ccc(O)cc1)C(=O)N[C@@H](CC(C)C)C(=O)N[C@H](C(=O)N[C@@H](CCC(=O)O)C(=O)NCC(=O)NCC(=O)N1CCC[C@H]1C(=O)N[C@@H](CO)C(=O)N[C@@H](CO)C(=O)NCC(=O)N[C@@H](C)C(=O)N1CCC[C@H]1C(=O)N1CCC[C@H]1C(=O)N1CCC[C@H]1C(=O)N[C@@H](CO)C(=O)N[C@@H](CCCCNC(=O)COCCOCCNC(=O)COCCOCCNC(=O)CC[C@H](NC(=O)CCCCCCCCCOc1ccc(C(=O)O)cc1)C(=O)O)C(N)=O)[C@@H](C)CC)[C@@H](C)CC [Example 241] (H-Y[Aib]EGT[αMePhe(2-F)]TSDY[Aib]I[αMeL]LD[Orn]IAQ[Aib]K([AEEA-AEEA-γGlu-Decanoyl(10-(4-HOOC-PhO))])FI[dE][αMeY]LIEGGPSSGAPPPSK([AEEA-AEEA-γGlu-Decanoyl(10-(4-HOOC-PhO))])-NH2; N-terminus assumed),84.9%,105%,0.0213 nM,105%,91%,0.362 nM,> 9950 nM,> 9950 nM,,,,,,,,
CCCC[C@H](NC(=O)[C@H](CC(=O)O)NC(=O)[C@H](CO)NC(=O)[C@@H](NC(=O)[C@](C)(Cc1ccccc1F)NC(=O)[C@@H](NC(=O)CNC(=O)[C@H](CCC(=O)O)NC(=O)C(C)(C)NC(=O)[C@@H](N)Cc1ccc(O)cc1)[C@@H](C)O)[C@@H](C)O)C(=O)N[C@@H](CO)C(=O)N[C@H](C(=O)N[C@@](C)(CC(C)C)C(=O)N[C@@H](CC(C)C)C(=O)N[C@@H](CC(=O)O)C(=O)N[C@@H](CCCN)C(=O)N[C@H](C(=O)N[C@@H](C)C(=O)N[C@@H](CCC(N)=O)C(=O)NC(C)(C)C(=O)N[C@@H](CCC(=O)O)C(=O)N[C@@H](Cc1ccccc1)C(=O)N[C@H](C(=O)N[C@@H](CCCCNC(=O)COCCOCCNC(=O)COCCOCCNC(=O)CC[C@H](NC(=O)CCCCCCCCCCCCC(=O)O)C(=O)O)C(=O)N[C@@](C)(Cc1ccc(O)cc1)C(=O)N[C@@H](CC(C)C)C(=O)N[C@H](C(=O)N[C@@H](CCCCNC(=O)COCCOCCNC(=O)COCCOCCNC(=O)CC[C@H](NC(=O)CCCCCCCCCCCCC(=O)O)C(=O)O)C(=O)NCC(=O)NCC(=O)N1CCC[C@H]1C(=O)N[C@@H](CO)C(=O)N[C@@H](CO)C(=O)NCC(=O)N[C@@H](C)C(=O)N1CCC[C@H]1C(=O)N1CCC[C@H]1C(=O)N1CCC[C@H]1C(=O)N[C@@H](CO)C(N)=O)[C@@H](C)CC)[C@@H](C)CC)[C@@H](C)CC)[C@@H](C)CC [Example 269],,,,,,,,,2.65 nM,87.3%,95.3%,105%,96.5%,1.72 nM,> 9950 nM,> 9950 nM
